In article PMC3031978 (Bioorganic & medicinal chemistry letters, 2010):
Entries after “also recorded” stand apart in the source; their conditions may differ.

Legend:
[1] = molecular target: T1, KOR (Homo sapiens, UniProt P41145); assay type: binding
[2] = molecular target: T1, KOR; assay type: binding; remark: listed apart in the source
[3] = molecular target: T1, KOR; assay type: biochemical
[4] = cited from earlier work

T1 sequence (P41145 whole entry): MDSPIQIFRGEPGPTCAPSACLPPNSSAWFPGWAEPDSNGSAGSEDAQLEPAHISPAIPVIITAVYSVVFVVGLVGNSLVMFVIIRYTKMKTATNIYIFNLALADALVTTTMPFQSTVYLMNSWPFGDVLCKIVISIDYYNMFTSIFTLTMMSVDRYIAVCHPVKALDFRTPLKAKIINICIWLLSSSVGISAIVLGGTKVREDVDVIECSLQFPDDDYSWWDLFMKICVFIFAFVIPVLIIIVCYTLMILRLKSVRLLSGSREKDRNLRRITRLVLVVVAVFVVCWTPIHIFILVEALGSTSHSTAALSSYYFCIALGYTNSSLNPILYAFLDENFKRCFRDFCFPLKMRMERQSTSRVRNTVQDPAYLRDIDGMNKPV

Row | SMILES | DOR/KOR [1] | MOR/KOR [1] | affinity at KOR (in words) [1] | displacement of [3H]diprenorphine at KOR (in words) [2] | agonist activity at KOR (in words) [3] | stability (in words) [4]
1 | COC(=O)[C@@H]1C[C@H](OC(=O)[C@H](C)N)C(=O)[C@H]2[C@@]1(C)CC[C@H]1C(=O)O[C@H](c3ccoc3)C[C@]21C [Analogue 10] | >2.64 | >2.64 | μM affinity; also recorded: in a μM range | did not displace [^3H]diprenorphine; also recorded: did not displace KOR antagonist binding |  | 
2 | COC(=O)[C@@H]1C[C@H](OC(=O)[C@@H](N)C(C)C)C(=O)[C@H]2[C@@]1(C)CC[C@H]1C(=O)O[C@H](c3ccoc3)C[C@]21C [Analogue 12, 2-(2′-(S)-amino-3-methylbutanoate) salvinorin B] | >238 | >238 |  |  | full agonist | 
3 | NCC(=O)O [Gly] |  |  |  |  |  | unstable
4 | CNCC(=O)O [Sar] |  |  |  |  |  | unstable
